Experimental data reported in PubChem BioAssay (NCI).
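Five concentrations, 48 hours, 96-well plates. GI50 = concentration required for 50% inhibition of growth. TGI: concentration producing complete growth inhibition.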

Legend:
Experiment in all cases: NCI anticancer screen, dose series, 48 h
[1] = tested on: TK-10 renal
[2] = tested on: MALME-3M melanoma
[3] = tested on: CCRF-CEM leukemia
[4] = tested on: NCI-H460 lung
[5] = tested on: UACC-257 melanoma
[6] = tested on: SR leukemia
[7] = tested on: IGROV1 ovarian
[8] = tested on: OVCAR-3 ovarian
[9] = tested on: MOLT-4 leukemia
[10] = tested on: KM12 colon

| Compound | GI50 [1] [µM] | TGI [1] [µM] | GI50 [2] [µM] | TGI [2] [µM] | GI50 [3] [µM] | TGI [3] [µM] | GI50 [4] [µM] | TGI [4] [µM] | GI50 [5] [µM] | TGI [5] [µM] | GI50 [6] [µM] | TGI [6] [µM] | GI50 [7] [µM] | TGI [7] [µM] | GI50 [8] [µM] | TGI [8] [µM] | GI50 [9] [µM] | TGI [9] [µM] | GI50 [10] [µM] | TGI [10] [µM] |
| --- | --- | --- | --- | --- | --- | --- | --- | --- | --- | --- | --- | --- | --- | --- | --- | --- | --- | --- | --- | --- |
| Cn1ccnc1C(=O)/C=C/c1ccc(CC(=O)Nc2ccc(C(F)(F)F)cc2)cc1 | 5 | 15.3 | 3.95 | 10.7 | 0.658 | > 16.7 | 2.99 | 9.42 | 8.03 | > 16.7 | 0.718 | 9.94 | 4.37 | 12.9 | 2.95 | 6.88 | 1.17 | 8.06 | 3.23 | 8.69 |
| O=C1NC2C=CN(Cc3ccccc3)C=C2C(=O)N2CCCC12 (stereo unspecified) | – | > 100 | – | > 100 | – | > 100 | – | > 100 | – | > 100 | – | > 100 | – | > 100 | – | > 100 | – | > 100 | – | > 100 |
| CS(=O)(=O)Nc1ccc(N=Cc2c(O)[nH]c3ccccc23)cc1 | > 25 | > 25 | > 25 | > 25 | > 20 | > 25 | > 25 | > 25 | > 25 | > 25 | > 25 | > 25 | > 25 | > 25 | > 25 | > 25 | > 25 | > 25 | 1.2 | > 25 |
| CCC(=O)N(O)C(C)(C)C | – | > 100 | – | > 100 | – | > 100 | – | > 100 | – | > 100 | – | > 100 | – | > 100 | – | > 100 | – | > 100 | – | > 100 |
| CN(C)CC1CCCCCC(CN(C)C)C1=O (stereo unspecified) | 0.852 | 2.13 | 2.19 | 5.01 | 1.38 | 3.87 | 18 | 36.8 | 1.77 | 4.6 | 2.1 | 7.14 | 15.1 | 36.3 | 1.48 | 5.05 | 2 | 5.51 | 15.9 | 37.1 |
| C/C=C/C=C/CCCCCCCCCCCCCC1(OC)C=CC(CC(=O)OC)OO1 (stereo unspecified) | 2.26 | 4.81 | – | 50.8 | 2.44 | 5.8 | – | 29.4 | – | 35.4 | – | 7.13 | 0.509 | 1.03 | 6.7 | 20.6 | 7.97 | 33.8 | 1.56 | 3.13 |
| COc1cc(C)c(O)c(C(=O)O)c1 | – | > 100 | – | > 100 | – | > 100 | – | > 100 | – | > 100 | – | > 100 | – | > 100 | – | > 100 | – | > 100 | – | > 100 |
| O=C(N/N=C/c1cc([N+](=O)[O-])ccc1O)c1cccc2ccccc12 | 4.4 | 72.9 | 3.12 | 21.7 | 0.905 | 38.6 | 2.75 | > 100 | 2.7 | 26.9 | 1.81 | 16.1 | 2.36 | 8.47 | 3.67 | > 100 | 2.41 | 21.7 | 4.66 | > 100 |
| CCCCN(CCCC)c1ccc(C(=NC(C)CCCN(CC)CC)c2ccc(N(C)C)cc2)cc1 (stereo unspecified) | 1.34 | 3.99 | 0.785 | 1.62 | 1.22 | 3.87 | 0.842 | 1.64 | 0.915 | 1.83 | 0.708 | 1.82 | 0.897 | 1.95 | 0.846 | 1.81 | 0.865 | 2.18 | 0.965 | 2.33 |
| CC(C)N1C(NNC(=O)c2cnccn2)=NS(=O)(=O)c2ccccc21 | > 100 | > 100 | > 100 | > 100 | 1.33 | 6.3 | > 100 | > 100 | > 100 | > 100 | > 100 | > 100 | > 100 | > 100 | > 100 | > 100 | > 100 | > 100 | > 100 | > 100 |
| FC(F)(F)c1ccc(-c2cnc(Cl)nc2NCc2cc(C(F)(F)F)cc(C(F)(F)F)c2)cc1 | 3.16 | > 100 | 2.84 | 7.56 | 3.82 | > 100 | 3.16 | > 100 | 2.18 | 7.28 | 3.67 | > 100 | 7.87 | > 100 | 2.79 | 9.25 | 3.94 | > 100 | 3.06 | > 100 |
